What all share (test): In vitro MIC, Agar Well Diffusion Method
Common to all, as to assay type: cell-based

Assay [1] has as its system Bacillus megaterium 164 ATCC 8011. The settings on record: Priestia megaterium, ATCC8011, Culture Bacillus megaterium 164 ATCC 8011. The source says: (§1) The in vitro activity of compounds of the present invention as measured by the Minimum Inhibitory Concentration (MIC) in micrograms per milliliter (mcg/ml), utilizing the Agar Well Diffusion Method, against a variety of Gram-negative microorganisms is illustrated in the following Table, in which the compounds evaluated were as follows: • Compound A: [2S-[2α,3α,5α,6β(R*)]]-6-[[[[(4-Ethyl-2,3-dioxo-1-piperazinyl)carbonyl]amino]phenylacetyl]amino]-3-methyl-3-[[(1-methyl-1H-tetrazole-5-yl)thio]methyl]-7-oxo-4-thia-1-azabicyclo[3.2.0]-heptane-2-carboxylic acid monosodium salt sesquihydrate • Compound B: [2S-(2α,3α,5α,6β)]-3-Methyl-3-[[(1-methyl-1H-tetrazol-5-yl)-thio]methyl-7-oxo-6-[(phenylacetyl)amino]-4-thia-1-azabicyclo[3.2.0] heptane-2-carboxylic acid monosodium salt • Compound C: [2S-[2α,3α,5α,6β(Z)]]-6-[[(2-Amino-4-thiazolyl)-(methoxyimino)-acetyl]amino]-3-methyl -3-[[(1-methyl-1H-tetrazol-5-yl)thio]methyl]-7-oxo-4-thia-1-azabicyclo[3.2.0]heptane-2-carboxylic acid monosodium salt • Compound D: [2S-(2α,3α,5α,6β)]-3-(Azidomethyl)-3-methyl-7-oxo-6-[(phenylacetyl)amino]-4-thia-1-azabicyclo-[3.2.0]heptane-2-carboxylic acid monosodium salt • Compound E: [2S-(2α,3α,5α,6β)]-1-[[2-carboxy-3-methyl-7-oxo-6-[(phenylacetyl)amino]-4-thia-1-azabicyclo-[3.2.0]hept-3-yl]methylpyridinium hydroxide inner salt • Compound F: [2S-(2α,3α,5α,6β)]-3-[[(2,5-Dihydro-6-hydroxy-2-methyl-5-oxo-1,2,4-triazine-3-yl)thio] -methyl]-3-methyl-7-oxo-6-[(phenylacetyl)amino]-4-thia-1-azabicyclo[3.2.0]heptane-2-carboxylic acid disodium salt • Compound G: [2S-(2α,3α,5α,6β)]-3-[(Acetylthio)-methyl]-3-methyl-7-oxo-6-[(phenylacetyl)amino]-4-thia-1-azabicyclo[3.2.0]heptane-2-carboxylic acid monosodium salt • Compound H: [2S-(2α,3α,5α,6β)]-3-[[[3,4-bis(Acetyloxy)benzoyl]oxy]methyl]-3-methyl-7-oxo-6-[(phenylacetyl)amino]-4-thia-1-azabicyclo[3.2.0]heptane-2-carboxylic acid monosodium salt

Assay [2] relates to Bacillus subtilus 558 NRRL 558. The settings on record: NRRL558, Culture Bacillus subtilus 558 NRRL 558.
Description: as §1

Another assay deals with Escherichia coli 1269B. The settings on record: Culture Escherichia coli 1269B.
Description: as §1

In another assay the test system is Escherichia coli 2721B. The settings on record: Culture Escherichia coli 2721B.
Description: as §1

The next assay concerns Escherichia coli 2722B. The settings on record: Culture Escherichia coli 2722B.
Description: as §1

The test system of a further assay is Escherichia coli 3081B. The settings on record: Culture Escherichia coli 3081B.
Description: as §1

In another assay the test system is Escherichia coli 3082B. The settings on record: Culture Escherichia coli 3082B.
Description: as §1

Assay [3] relates to Micrococcus luteus PCI ATCC 9341. The settings on record: ATCC9341, Culture Micrococcus luteus PCI ATCC 9341.
Description: as §1

In a further assay the test system is Proteus vulgaris 100. The settings on record: Culture Proteus vulgaris 100.
Description: as §1

In assay [4] the test system is Proteus vulgaris 101N ATCC 6380. The settings on record: ATCC6380, Culture Proteus vulgaris 101N ATCC 6380.
Description: as §1

Assay [5] relates to Pseudomonas aeruginosa 56 ATCC 8079. The settings on record: ATCC8079, Culture Pseudomonas aeruginosa 56 ATCC 8079.
Description: as §1

In assay [6] the test system is Pseudomonas aeruginosa 56M. The settings on record: Culture Pseudomonas aeruginosa 56M.
Description: as §1

In assay [7] the test system is Pseudomonas maltophilia 28978 ATCC 17445. The settings on record: Stenotrophomonas maltophilia, ATCC17445, Culture Pseudomonas maltophilia 28978 ATCC 17445.
Description: as §1

Assay [8] relates to Staphylococcus aureus 3647B. The settings on record: Culture Staphylococcus aureus 3647B.
Description: as §1

Assay [9] deals with Staphylococcus aureus 82 ATCC 6538P. The settings on record: ATCC6538P, Culture Staphylococcus aureus 82 ATCC 6538P.
Description: as §1

Assay [10] deals with Streptococcus faecium ATCC 8043. The settings on record: Enterococcus faecium, ATCC8043, Culture Streptococcus faecium ATCC 8043.
Description: as §1

Assay [11] concerns Staphylococcus aureus 1059B. The settings on record: Culture Staphylococcus aureus 1059B.
In assay [12] the test system is Staphylococcus aureus 3037B. The settings on record: Culture Staphylococcus aureus 3037B.

Counter-ions that a name gives are not always drawn.

By MIC is commonly meant the smallest concentration in the dilution series that meets the test's criterion for growth inhibition. On to `CON=C(C(=O)NC1C(=O)N2C1SC(C)(CSc1nnnn1C)C2C(=O)O)c1csc(N)n1` (stereo not drawn) [Compound C, [2S-[2α,3α,5α,6β(Z)]]-6-[[(2-Amino-4-thiazolyl)-(methoxyimino)-acetyl]amino]-3-methyl-3-[[(1-methyl-1H-tetrazol-5-yl)thio]methyl]-7-oxo-4-thia-1-azabicyclo[3.2.0]heptane-2-carboxylic acid monosodium salt], for which the MIC in [1] was 0.12 µg/mL; in assay [2], 0.49 µg/mL; in the assay on Escherichia coli 1269B, more than 500 µg/mL; against Escherichia coli 2721B, 31.3 µg/mL; in the assay on Escherichia coli 2722B it was 1.95 µg/mL; in the assay with Escherichia coli 3081B it was more than 125 µg/mL. Also, the MIC against Escherichia coli 3082B is 1.95 µg/mL; in [3], 0.24 µg/mL; in the assay with Proteus vulgaris 100, 250 µg/mL; in assay [4] it was 31.3 µg/mL; in assay [5], 62.5 µg/mL; in assay [6] it was 0.98 µg/mL. Moreover, the MIC in assay [7] was more than 500 µg/mL; in [8], 250 µg/mL; in [9], 0.49 µg/mL; in assay [10] it was 125 µg/mL; in assay [11] it was 3.9 µg/mL; in assay [12], 250 µg/mL.

In the case of `CC1(CN=[N+]=[N-])SC2C(NC(=O)Cc3ccccc3)C(=O)N2C1C(=O)O` (stereo not drawn) [Compound D, [2S-(2α,3α,5α,6β)]-3-(Azidomethyl)-3-methyl-7-oxo-6-[(phenylacetyl)amino]-4-thia-1-azabicyclo-[3.2.0]heptane-2-carboxylic acid monosodium salt], the MIC in [1] was 0.12 µg/mL; in assay [2], 0.06 µg/mL; in the assay with Escherichia coli 1269B it was more than 125 µg/mL; against Escherichia coli 2721B it was 62.5 µg/mL; against Escherichia coli 2722B, 15.6 µg/mL; with Escherichia coli 3081B, 125 µg/mL. Moreover, the MIC in the assay with Escherichia coli 3082B is 7.8 µg/mL; in assay [3] it was 0.03 µg/mL; in the assay on Proteus vulgaris 100, more than 125 µg/mL; in assay [4], 15.6 µg/mL; in assay [5], more than 125 µg/mL; in assay [6], 3.9 µg/mL. Also, the MIC was more than 125 µg/mL in assay [7]; 125 µg/mL in [8]; 0.03 µg/mL in assay [9]; 7.8 µg/mL in [10]; 7.8 µg/mL in [11]; 125 µg/mL in [12].

The values above are taken from patent EP0367124A1, “Penicillanic acid derivatives” (F. HOFFMANN-LA ROCHE AG, priority 1988, dated 1990).
